Measurements taken from publication PMC5585240, “NF-κB inhibitors, unique γ-pyranol-γ-lactams with sulfide and sulfoxide moieties from Hawaiian plant Lycopodiella cernua derived fungus Paraphaeosphaeria neglecta FT462” (Scientific Reports, 2017).
Entries after “also recorded” stand apart in the source; their conditions may differ. Read-outs that look alike come from different tables or passages of the source.

Legend:
[1] = Cytotoxicity under the same conditions as the NF-κB assay; type: cell-based; conditions: human
iNOS = assay: Nitric oxide (iNOS) assay in LPS-stimulated RAW 264.7 cells, Griess reagent; type: cell-based; conditions: Mus musculus, RAW264.7; lipopolysaccharide-stimulated (1 μg/mL, 20 h) RAW 264.7 cells, nitrite; read-out: iNOS inhibition IC50
Method: RAW 264.7 cells (1 × 10^4 cells/well) were seeded and incubated in 96-well culture plates at 37 °C, 5% CO2 in humidified air for 24 h. Then, complete medium was replaced with phenol red-free medium containing various concentrations of the test compounds, followed by LPS stimulation (1 μg/mL) for 20 h. The nitrite released in the culture media was reacted with Griess reagent, and the absorbance was measured at 540 nm. The amount of nitrite was calculated using a standard curve of known nitrite concentration versus absorbance at 540 nm. TPCK was used as a positive control. IC50 values were calculated using Table Curve 2D Windows V4.07 by AISN Software Inc[44].

NF-κB = assay: TNF-α-induced NF-κB luciferase reporter assay in human embryonic kidney cells 293; type: cell-based; conditions: 293 cells, 6 h, read-out: NF-κB inhibition IC50
Method: We employed human embryonic kidney cells 293, Panomic for monitoring changes occurring along the NF-κB pathway. Stable constructed cells were seeded into 96-well plates at 20 × 10^3 cells per well. Cells were maintained in Dulbecco’s modified Eagle’s medium (DMEM) (Invitrogen Co.), supplemented with 10% FBS, 100 units/mL penicillin, 100 μg/mL streptomycin, and 2 mM L-glutamine. After 48 h incubation, the medium was replaced and the cells were treated with various concentrations of test substances. TNF-α (human, recombinant, E. coli, Calbiochem) was used as an activator at a concentration of 2 ng/mL (0.14 nM). The plate was incubated for 6 h. Spent medium was discarded, and the cells were washed once with PBS. Cells were lysed using 50 μL (for 96-well plate) of reporter lysis buffer from Promega by incubating for 5 min on a shaker, and stored at −80 °C. The luciferase assay was performed using the Luc assay system from Promega. The gene product, luciferase enzyme, reacts with luciferase substrate, emitting light, which was detected using a luminometer (LUMIstar Galaxy BMG). Data for NF-κB inhibition are expressed as IC50 values (i.e., concentration required to inhibit TNFinduced NF-kB activity by 50%). The known NF-κB inhibitor TPCK was used as a positive control.

E. coli JW2496 (∆bamB) = assay: Antibacterial microbroth dilution assay; type: cell-based; conditions: 20 μg/mL (maximum test concentration)
Method: MIC values were determined against E. coli JW2496 (∆bamB) and other bacteria using the standard microbroth dilution method exactly as previously described, which is based on the methods by the Clinical and Laboratory Standards Institute[41], [42]. The maximum test concentration used was 20 μg/mL.

[2] = Cytotoxicity in the iNOS assay; type: cell-based; conditions: mouse, RAW 264.7 cells
STAT3 = test system: STAT3; set-up: method as in PMID 26107089, PMID 16928075; conditions: cited from earlier work
[3] = Homo sapiens, HEK293, TNF-α (2 ng/mL) induced NF-κB activity

IC50 (iNOS)	Compound	IC50 at 6 h [1]	IC50 (NF-κB; [3])	inhibition of E. coli JW2496 (E. coli JW2496 (∆bamB))	IC50 at 20 h [2]	IC50 (NF-κB; TNF-α (2 ng/mL) induced NF-κB activity)	STAT3 inhibition (STAT3)
43.2 ± 0.7 µM	CCCCC[C@@H]1OC2=C(C(=O)N(OC)[C@@H]2CSC[C@@H](O)C(=O)O)[C@@H](O)[C@@]1(C)O [Compound 2, Paraphaeosphaeride F]	> 50 µM			> 50 µM		
16.1 ± 6.6 µM	CCCCC[C@@H]1OC2=C(C(=O)N(OC)[C@@H]2C[S@+]([O-])C[C@@H](O)C(=O)O)[C@H](O)[C@@]1(C)O [Compound 3, Paraphaeosphaeride G]	> 50 µM	1.5 µM		> 50 µM		
	Cc1ccc(S(=O)(=O)N[C@@H](Cc2ccccc2)C(=O)CCl)cc1 [TPCK, N α-tosyl-l-phenylalanine chloromethyl ketone, reference compound]					4.09 ± 0.12 µM	
	C=C1C2=C(C(=O)N1OC)[C@H](O)[C@@](C)(O)[C@H](CCCCC)O2 [phaeosphaeride A]						showed STAT3 inhibition; also recorded: showed STAT3 inhibitory activity

Compound	IC50 (iNOS)	IC50 at 6 h [1]	IC50 (NF-κB; [3])	inhibition of E. coli JW2496 (E. coli JW2496 (∆bamB))	IC50 at 20 h [2]	IC50 (NF-κB; TNF-α (2 ng/mL) induced NF-κB activity)	STAT3 inhibition (STAT3)
CCCCC[C@@H]1OC2=C(C(=O)N(OC)[C@@H]2CSC[C@@H](O)C(=O)O)[C@H](O)[C@@]1(C)O [Compound 1, Paraphaeosphaeride E]	47.9 ± 0.03 µM	> 50 µM	7.1 µM	mildly inhibited	> 50 µM		
